Assay [1] has as its system Wnt pathway. Put plainly: Wnt activity reporter assay (SP5 promoter-luciferase in SW480 cells). Format: cell-based. The note with it: Homo sapiens, SP5 promoter firefly luciferase reporter, read-out: Wnt inhibition. The procedure, abridged: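 SW480 cells stably carrying an SP5 promoter (eight TCF/LEF sites)-firefly luciferase reporter were seeded at ~10,000 per well and given half-log compound dilutions from a 10 µM top concentration.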

The subject of assay [2] is β-catenin. Put plainly: NL-20 β-catenin reporter assay (primary screening assay for IPF). Type of assay: cell-based. The note with it: transformed human bronchial epithelial cell line NL-20. The source says:
Compounds of Formulas (I) or (II) were screened in a β-catenin-based reporter assay in a transformed human bronchial epithelial cell line (NL-20).

As to `Nc1cncc(-c2cnc3[nH]nc(-c4nc5c(-c6cccc(F)c6)cncc5[nH]4)c3c2)c1` [Compound 5, 5-(3-(7-(3-Fluorophenyl)-3H-imidazo[4,5-c]pyridin-2-yl)-1H-pyrazolo[3,4-b]pyridin-5-yl)pyridin-3-amine], the values for the IC50 in assay [1] and in assay [2] (NL20) were 3.9 nM and 175 nM, respectively.
On to `CN(C)c1cncc(-c2cnc3[nH]nc(-c4nc5c(-c6cccc(F)c6)cncc5[nH]4)c3c2)c1` [Compound 7, 5-(3-(7-(3-Fluorophenyl)-3H-imidazo[4,5-c]pyridin-2-yl)-1H-pyrazolo[3,4-b]pyridin-5-yl)-N,N-dimethylpyridin-3-amine], for which the results for the IC50 in assay [1] and in assay [2] (NL20) were 6 nM and 1900 nM, respectively.
Consider `CC(C)Nc1cncc(-c2cnc3[nH]nc(-c4nc5c(-c6cccc(F)c6)cncc5[nH]4)c3c2)c1` [Compound 9, 5-(3-(7-(3-Fluorophenyl)-3H-imidazo[4,5-c]pyridin-2-yl)-1H-pyrazolo[3,4-b]pyridin-5-yl)-N-isopropylpyridin-3-amine], for which the IC50 in assay [1] worked out at 1.2 nM; in assay [2] (NL20) it was 67 nM.
For the molecule `CN1CCN(Cc2cc(F)cc(-c3cncc4[nH]c(-c5n[nH]c6ncc(-c7cccnc7)cc56)nc34)c2)CC1` [Compound 10, 3-(7-(3-Fluoro-5-((4-methylpiperazin-1-yl)methyl)phenyl)-3H-imidazo[4,5-c]pyridin-2-yl)-5-(pyridin-3-yl)-1H-pyrazolo[3,4-b]pyridine], the IC50 was 263 nM in assay [1] and 247 nM in assay [2] (NL20).
For `CN1CCN(c2cc(F)cc(-c3cncc4[nH]c(-c5n[nH]c6ncc(-c7cccnc7)cc56)nc34)c2)CC1` [Compound 11, 3-(7-(3-Fluoro-5-(4-methylpiperazin-1-yl)phenyl)-3H-imidazo[4,5-c]pyridin-2-yl)-5-(pyridin-3-yl)-1H-pyrazolo[3,4-b]pyridine], the values for the IC50 in assay [1] and in assay [2] (NL20) were 99 nM and 210 nM, respectively.
For the molecule `CN(C)CCNc1cc(F)cc(-c2cncc3[nH]c(-c4n[nH]c5ncc(-c6cccnc6)cc45)nc23)c1` [Compound 12, N1-(3-Fluoro-5-(2-(5-(pyridin-3-yl)-1H-pyrazolo[3,4-b]pyridin-3-yl)-3H-imidazo[4,5-c]pyridin-7-yl)phenyl)-N2,N2-dimethylethane-1,2-diamine], the figures for the IC50 in assay [1] and in assay [2] (NL20) were 21 nM and 310 nM, respectively.
Consider `CN(C)Cc1cc(F)cc(-c2cncc3[nH]c(-c4n[nH]c5ncc(-c6cccnc6)cc45)nc23)c1` [Compound 14, 1-(3-Fluoro-5-(2-(5-(pyridin-3-yl)-1H-pyrazolo[3,4-b]pyridin-3-yl)-3H-imidazo[4,5-c]pyridin-7-yl)phenyl)-N,N-dimethylmethanamine], for which the values for the IC50 in assay [1] and in assay [2] (NL20) were 138 nM and 2030 nM, respectively.
Taken in the same sequence, the figures for `CN(C)Cc1cncc(-c2cnc3[nH]nc(-c4nc5c(-c6cccc(F)c6)cncc5[nH]4)c3c2)c1` [Compound 18, 1-(5-(3-(7-(3-Fluorophenyl)-3H-imidazo[4,5-c]pyridin-2-yl)-1H-pyrazolo[3,4-b]pyridin-5-yl)pyridin-3-yl)-N,N-dimethylmethanamine] were 13 nM and 440 nM.
`CN(C)Cc1cncc(-c2cnc3[nH]nc(-c4nc5c(-c6cccs6)cncc5[nH]4)c3c2)c1` [Compound 452, N,N-Dimethyl-1-(5-(3-(7-(thiophen-2-yl)-3H-imidazo[4,5-c]pyridin-2-yl)-1H-pyrazolo[3,4-b]pyridin-5-yl)pyridin-3-yl)methanamine]: the IC50 in assay [1] is 48 nM; in assay [2] (NL20), 1090 nM.
As for `Cc1cn(-c2cccc3[nH]c(-c4n[nH]c5ncc(-c6cncc(CN(C)C)c6)cc45)nc23)cn1` [Compound 719, N,N-Dimethyl-1-(5-(3-(4-(4-methyl-1H-imidazol-1-yl)-1H-benzo[d]imidazol-2-yl)-1H-pyrazolo[3,4-b]pyridin-5-yl)pyridin-3-yl)methanamine], in assay [1], the IC50 came out at 200 nM.
In the case of `Cc1cn(-c2cccc3[nH]c(-c4n[nH]c5ncc(-c6cncc(NC(=O)C7CCCCC7)c6)cc45)nc23)cn1` [Compound 728, N-(5-(3-(4-(4-Methyl-1H-imidazol-1-yl)-1H-benzo[d]imidazol-2-yl)-1H-pyrazolo[3,4-b]pyridin-5-yl)pyridin-3-yl)cyclohexanecarboxamide], the IC50 in assay [1] is 39 nM.
As for `CCNCc1cncc(-c2cnc3[nH]nc(-c4nc5c(N6CCN(C)CC6)cccc5[nH]4)c3c2)c1` [Compound 738, N-((5-(3-(4-(4-Methylpiperazin-1-yl)-1H-benzo[d]imidazol-2-yl)-1H-pyrazolo[3,4-b]pyridin-5-yl)pyridin-3-yl)methyl)ethanamine], the IC50 in assay [1] worked out at 550 nM.
With `CN1CCN(c2cccc3[nH]c(-c4n[nH]c5ncc(-c6cncc(NC(=O)C7CCC7)c6)cc45)nc23)CC1` [Compound 752, N-(5-(3-(4-(4-Methylpiperazin-1-yl)-1H-benzo[d]imidazol-2-yl)-1H-pyrazolo[3,4-b]pyridin-5-yl)pyridin-3-yl)cyclobutanecarboxamide], in assay [1], the IC50 was found to be 226 nM.
On the same count and under the same terms, the result for `CN1CCN(c2cccc3[nH]c(-c4n[nH]c5ncc(-c6cncc(CN7CCC(F)(F)C7)c6)cc45)nc23)CC1` [Compound 758, 5-(5-((3,3-Difluoropyrrolidin-1-yl)methyl)pyridin-3-yl)-3-(4-(4-methylpiperazin-1-yl)-1H-benzo[d]imidazol-2-yl)-1H-pyrazolo[3,4-b]pyridine] reads 48 nM; that for `Nc1cncc(-c2cnc3[nH]nc(-c4nc5ccccc5[nH]4)c3c2)c1` [Compound 761, 5-(3-(1H-Benzo[d]imidazol-2-yl)-1H-pyrazolo[3,4-b]pyridin-5-yl)pyridin-3-amine], 320 nM.
On the same count and under the same terms, the result for `CN(C)c1cncc(-c2cnc3[nH]nc(-c4nc5ccccc5[nH]4)c3c2)c1` [Compound 765, 5-(3-(1H-Benzo[d]imidazol-2-yl)-1H-pyrazolo[3,4-b]pyridin-5-yl)-N,N-dimethylpyridin-3-amine] reads 27 nM; that for `CC(C)(C)CC(=O)Nc1cncc(-c2cnc3[nH]nc(-c4nc5ccccc5[nH]4)c3c2)c1` [Compound 774, N-(5-(3-(1H-Benzo[d]imidazol-2-yl)-1H-pyrazolo[3,4-b]pyridin-5-yl)pyridin-3-yl)-3,3-dimethylbutanamide], 200 nM; that for `c1ccc(CNCc2cncc(-c3cnc4[nH]nc(-c5nc6ccccc6[nH]5)c4c3)c2)cc1` [Compound 781, 1-(5-(3-(1H-Benzo[d]imidazol-2-yl)-1H-pyrazolo[3,4-b]pyridin-5-yl)pyridin-3-yl)-N-benzylmethanamine], 1440 nM.
On the same count and under the same terms, the same measure for `CCC(=O)Nc1cncc(-c2cnc3[nH]nc(-c4nc5c(-c6ccsc6)cccc5[nH]4)c3c2)c1` [Compound 785, N-(5-(3-(4-(Thiophen-3-yl)-1H-benzo[d]imidazol-2-yl)-1H-pyrazolo[3,4-b]pyridin-5-yl)pyridin-3-yl)propionamide]: 10 nM.
Turning to `CC(C)C(=O)Nc1cncc(-c2cnc3[nH]nc(-c4nc5c(-c6ccsc6)cccc5[nH]4)c3c2)c1` [Compound 793, N-(5-(3-(4-(Thiophen-3-yl)-1H-benzo[d]imidazol-2-yl)-1H-pyrazolo[3,4-b]pyridin-5-yl)pyridin-3-yl)isobutyramide], the IC50 in assay [1] amounted to 16 nM.
Turning to `CN(C)Cc1cncc(-c2cnc3[nH]nc(-c4nc5c(-c6ccsc6)cccc5[nH]4)c3c2)c1` [Compound 797, N,N-Dimethyl-1-(5-(3-(4-(thiophen-3-yl)-1H-benzo[d]imidazol-2-yl)-1H-pyrazolo[3,4-b]pyridin-5-yl)pyridin-3-yl)methanamine], the IC50 in assay [1] turned out to be 32 nM.
The same measure, in the same setting: the result for `c1cc(-c2ccsc2)c2nc(-c3n[nH]c4ncc(-c5cncc(CN6CCCCC6)c5)cc34)[nH]c2c1` [Compound 799, 5-(5-(Piperidin-1-ylmethyl)pyridin-3-yl)-3-(4-(thiophen-3-yl)-1H-benzo[d]imidazol-2-yl)-1H-pyrazolo[3,4-b]pyridine] reads 82 nM; that for `O=C(Nc1cncc(-c2cnc3[nH]nc(-c4nc5c(-c6ccsc6)cccc5[nH]4)c3c2)c1)C1CC1` [Compound 803, N-(5-(3-(4-(Thiophen-3-yl)-1H-benzo[d]imidazol-2-yl)-1H-pyrazolo[3,4-b]pyridin-5-yl)pyridin-3-yl)cyclopropanecarboxamide], 17 nM.
As for `CC(C)(C)C(=O)Nc1cncc(-c2cnc3[nH]nc(-c4nc5c(-c6ccoc6)cccc5[nH]4)c3c2)c1` [Compound 818, N-(5-(3-(4-(Furan-3-yl)-1H-benzo[d]imidazol-2-yl)-1H-pyrazolo[3,4-b]pyridin-5-yl)pyridin-3-yl)pivalamide], the IC50 in assay [1] was 50 nM.
Same read-out and setting: the result for `CCCC(=O)Nc1cncc(-c2cnc3[nH]nc(-c4nc5c(-c6ccoc6)cccc5[nH]4)c3c2)c1` [Compound 827, N-(5-(3-(4-(Furan-3-yl)-1H-benzo[d]imidazol-2-yl)-1H-pyrazolo[3,4-b]pyridin-5-yl)pyridin-3-yl)butyramide] reads 63 nM.
As for `c1cncc(-c2cnc3[nH]nc(-c4nc5c(-c6cccs6)cccc5[nH]4)c3c2)c1` [Compound 888, 5-(Pyridin-3-yl)-3-(4-(thiophen-2-yl)-1H-benzo[d]imidazol-2-yl)-1H-pyrazolo[3,4-b]pyridine], the IC50 in assay [1] came to 12 nM.
With `c1csc(-c2cccc3[nH]c(-c4n[nH]c5ncc(-c6cncc(CN7CCCC7)c6)cc45)nc23)c1` [Compound 898, 5-(5-(Pyrrolidin-1-ylmethyl)pyridin-3-yl)-3-(4-(thiophen-2-yl)-1H-benzo[d]imidazol-2-yl)-1H-pyrazolo[3,4-b]pyridine], the IC50 in assay [1] is 120 nM.
Consider `O=C1C(Cc2ccc(O)cc2)N2C(=O)CCN(C(=O)NCc3ccccc3)C2CN1Cc1cccc2ccccc12` (stereo not shown) [ICG-001, reference compound], for which, in assay [2], the IC50 turned out to be 7000 nM.

The values above are taken from patent US10071086B2, “1H-pyrazolo[3,4-b]pyridines and therapeutic uses thereof” (Samumed, LLC, priority 2012, dated 2018).
